Tests used:
[1] = classification of the substance (M+/M−); cited from earlier work
[2] = system: mRNA expressed from the genes (A) to (D) in rat liver; assay: Behavior of genes (mRNA expression level, oligo-DNA microarray) in rat liver after 28-day oral administration; format: in vivo
Procedure, shortened: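 Groups of four male F344 SPF rats aged 5 weeks are gavaged once a day for 28 days with test chemical in solvent or with solvent alone at equal volume. Total RNA comes from liver taken on day 28. Fold change of 1.5 or 1/1.5 versus control, directionally consistent, defines significance.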

liver = settings: in vivo; cited from earlier work
rodent = settings: classification of the substance (C+/C−); cited from earlier work
[3] = gene group (A), Unigene No. Rn.167075
[4] = gene group (C), Unigene No. Rn.120914

Compound: O=C(OC[C@H]1O[C@@H](OC(=O)c2cc(O)c(O)c(OC(=O)c3cc(O)c(O)c(O)c3)c2)[C@H](OC(=O)c2cc(O)c(O)c(OC(=O)c3cc(O)c(O)c(O)c3)c2)[C@@H](OC(=O)c2cc(O)c(O)c(OC(=O)c3cc(O)c(O)c(O)c3)c2)[C@@H]1OC(=O)c1cc(O)c(O)c(OC(=O)c2cc(O)c(O)c(O)c2)c1)c1cc(O)c(O)c(OC(=O)c2cc(O)c(O)c(O)c2)c1 [TS052, Tannic acid]
- Mutagenicity by Ames test [1]: M−
- Behavior of gene caused by administration of chemical substance, Gene No. 4846 ([2]; gene group (A), Unigene No. Rn.144554): −
- Behavior of gene caused by administration of chemical substance, Gene No. 2026 [2, 3]: −
- Behavior of gene caused by administration of chemical substance, Gene No. 4218 [2, 3]: −
- Behavior of gene caused by administration of chemical substance, Gene No. 6182 ([2]; gene group (A), Unigene No. Rn.5834): −
- Behavior of gene caused by administration of chemical substance, Gene No. 5600 ([2]; gene group (A), Unigene No. Rn.9836): −
- Behavior of gene caused by administration of chemical substance, Gene No. 1494 ([2]; gene group (B), Unigene No. Rn.1430): −
- Behavior of gene caused by administration of chemical substance, Gene No. 2045 ([2]; gene group (B), Unigene No. Rn.19329): −
- Behavior of gene caused by administration of chemical substance, Gene No. 2203 ([2]; gene group (B), Unigene No. Rn.21240): +
- Behavior of gene caused by administration of chemical substance, Gene No. 533 ([2]; gene group (C), Unigene No. Rn.106184): −
- Behavior of gene caused by administration of chemical substance, Gene No. 725 ([2]; gene group (C), Unigene No. Rn.108075): −
- Behavior of gene caused by administration of chemical substance, Gene No. 1163 ([2]; gene group (C), Unigene No. Rn.11766): +
- Behavior of gene caused by administration of chemical substance, Gene No. 4973 ([2]; gene group (C), Unigene No. Rn.118529): −
- Behavior of gene caused by administration of chemical substance, Gene No. 4095 ([2]; gene group (C), Unigene No. Rn.119024): −
- Behavior of gene caused by administration of chemical substance, Gene No. 1334 [2, 4]: −
- Behavior of gene caused by administration of chemical substance, Gene No. 6620 [2, 4]: −
- Behavior of gene caused by administration of chemical substance, Gene No. 6303 ([2]; gene group (C), Unigene No. Rn.123063): −
- Behavior of gene caused by administration of chemical substance, Gene No. 5878 ([2]; gene group (C), Unigene No. Rn.143213): −
- Behavior of gene caused by administration of chemical substance, Gene No. 1131 ([2]; gene group (C), Unigene No. Rn.144946): −
- Behavior of gene caused by administration of chemical substance, Gene No. 1562 ([2]; gene group (C), Unigene No. Rn.14744): −
- Behavior of gene caused by administration of chemical substance, Gene No. 1741 ([2]; gene group (C), Unigene No. Rn.1647): −
- Behavior of gene caused by administration of chemical substance, Gene No. 893 ([2]; gene group (C), Unigene No. Rn.164817): −
- Behavior of gene caused by administration of chemical substance, Gene No. 6026 ([2]; gene group (C), Unigene No. Rn.167685): −
- Behavior of gene caused by administration of chemical substance, Gene No. 154 ([2]; gene group (C), Unigene No. Rn.185941): −
- Behavior of gene caused by administration of chemical substance, Gene No. 1993 ([2]; gene group (C), Unigene No. Rn.18728): −
- Behavior of gene caused by administration of chemical substance, Gene No. 813 ([2]; gene group (C), Unigene No. Rn.201760): −
- Behavior of gene caused by administration of chemical substance, Gene No. 2494 ([2]; gene group (C), Unigene No. Rn.23969): −
- Behavior of gene caused by administration of chemical substance, Gene No. 2546 ([2]; gene group (C), Unigene No. Rn.24561): −
- Behavior of gene caused by administration of chemical substance, Gene No. 3776 ([2]; gene group (C), Unigene No. Rn.43232): −
- Behavior of gene caused by administration of chemical substance, Gene No. 3929 ([2]; gene group (C), Unigene No. Rn.4620): −
- Behavior of gene caused by administration of chemical substance, Gene No. 1119 ([2]; gene group (C), Unigene No. Rn.9757): −
- Behavior of gene caused by administration of chemical substance, Gene No. 6742 ([2]; gene group (C), Unigene No. Rn.9779): −
- Behavior of gene caused by administration of chemical substance, Gene No. 5634 ([2]; gene group (C), Unigene No. Rn.9862): −
- Behavior of gene caused by administration of chemical substance, Gene No. 5726 ([2]; gene group (D), Unigene No. Rn.9939): −
- Liver carcinogenicity (liver): Cr+
- Carcinogenicity (rodent): C+

Source: US20110039721A1, “METHOD FOR PREDICTION ABOUT CARCINOGENICITY OF SUBSTANCE IN RODENT” (Chemicals Evaluation and Research Institute, priority 2007, published 2011)
